Experimental data: article PMC2443290, “Genistein-Supplemented Diet Decreases Malaria Liver Infection in Mice and Constitutes a Potential Prophylactic Strategy” (PLoS ONE, 2008)
Where “and” joins values, the source holds several entries; their conditions need not be identical. Equal entries are not always repeated. Where two headings read alike, the source gives them in different places.

Tests used:
[1] = tested on: P. berghei ANKA sporozoites; experiment: In vitro infection of Hepa1-6 cells by P. berghei ANKA sporozoites, EEF counting; type: cell-based
Method: (§1) HepG2, and Hepa1-6 cells (human and mouse hepatoma cell lines, respectively) were maintained in DMEM 10% FCS, 1% Penicillin/Streptomycin and 1 mM glutamine. HepG2 or Hepa1-6 cells (2×10^5) were seeded in 24-well plates and allowed to adhere for 24 hours before infection. Huh7 cells (human hepatoma cell line) were maintained in RPMI 10% FCS, 1% Penicillin/Streptomycin and 1 mM glutamine. Huh7 cells (1,75×10^5) were seeded in 24-well plates and allowed to adhere for 24 hours before infection. Green fluorescent protein (GFP)-expressing P. berghei ANKA sporozoites were obtained from the dissection of infected Anopheles stephensi mosquito salivary glands.
(§2) P. berghei ANKA sporozoites (4×10^4/well) were added to monolayers of Hepa1-6 or HepG2 cells in 24-well plates. […] As control, an equivalent volume of DMSO (dimethylsulphoxide) was added. […] In all experiments, genistein was left in the cultures since the time of addition until the cells were fixed for quantification of infection. Infection was quantified by counting the total number of EEFs per coverslip using fluorescence microscopy (magnification 400×). […] The level of infection was measured as described above, 24 hours post-infection with sporozoites. Quantification of the area of 100 individual EEFs of each group was performed using ImageJ 1.36b software. The results are expressed as areas in μm^2.

[2] = tested on: P. berghei ANKA sporozoites; experiment: In vitro infection of HepG2 cells by P. berghei ANKA sporozoites, EEF counting; type: cell-based; conditions: 25 μM
Method: as §1
P. berghei ANKA sporozoites (4×10^4/well) were added to monolayers of Hepa1-6 or HepG2 cells in 24-well plates. […] As control, an equivalent volume of DMSO (dimethylsulphoxide) was added. After 24 hours cells were fixed and stained with mouse anti-EEF (exo-erythrocytic forms of the parasite) antibody (2E6), followed by an anti-mouse secondary antibody. In all experiments, genistein was left in the cultures since the time of addition until the cells were fixed for quantification of infection. Infection was quantified by counting the total number of EEFs per coverslip using fluorescence microscopy (magnification 400×). […] The level of infection was measured as described above, 24 hours post-infection with sporozoites. Quantification of the area of 100 individual EEFs of each group was performed using ImageJ 1.36b software. The results are expressed as areas in μm^2.

[3] = tested on: P. berghei ANKA sporozoites; experiment: In vitro infection of Huh7 cells by P. berghei ANKA sporozoites, EEF counting; type: cell-based
Method: as §1, §2

HepG2 cells = experiment: Viability of genistein-treated HepG2 cells, number of adherent cells; type: cell-based, human; conditions: 25 μM or 250 μM, 24 hours
Method: (§3) Twenty four hours later the number of adherent cells was determined in 10 fields per coverslip, in triplicates. […] Control sporozoites were treated with equivalent volume of DMSO. After 30 min of incubation, sporozoites were washed and added to a monolayer of HepG2 cells seeded 24 hours before. Infection was assessed 24 hours later by determining the number of EEFs in each well.

Huh7 cells = experiment: Cell death of Huh7 cells, propidium iodide flow cytometry; type: cell-based, human; conditions: 24 hours
[4] = tested on: P. berghei ANKA sporozoites; experiment: Pre-treatment of sporozoites with genistein, then infection of HepG2 cells; type: cell-based; conditions: sporozoites incubated with 100 μM for 30 min, washed, added to HepG2 cells; 24 hours
Method: as §3

[5] = tested on: P. berghei ANKA expressing GFP sporozoites; experiment: FACS analysis of Huh7 cells infected with PbGFP sporozoites (invasion and GFP intensity); type: cell-based
Method: FACS analysis at 2, 6, 30 and 44 hours after sporozoite addition was performed to determine the percentage of parasite-containing cells and parasite-GFP intensity within infected cells. Cell samples for FACS analysis were processed as previously described.

P. berghei ANKA = experiment: IC50 of infection of Huh7 cells by P. berghei ANKA, 18S rRNA qRT-PCR; type: cell-based; conditions: Plasmodium berghei
Method: (§4) This was performed in parallel to experiments where primaquine was tested in P. berghei infection of Huh7 cells. […] In addition to hepatoma cell lines primary mouse hepatocyte cultures were also used.
Black circles represent the mean of P. berghei ANKA18S rRNA expression in each condition (n = 3). […] Black circles represent the mean of P. berghei ANKA18S rRNA expression in each condition (n = 3).

P. yoelii = experiment: IC50 of infection of Hepa1-6 cells by P. yoelii, 18S rRNA qRT-PCR; type: cell-based; conditions: Plasmodium yoelii, Hepa1-6, 24 h, P. yoelii infection of Hepa1-6 cells, read-out: IC50 (inhibition of infection)
P. berghei sporozoites = type: cell-based; conditions: data not shown
Method: as §4

[6] = tested on: P. berghei ANKA sporozoites; experiment: Mouse liver infection by P. berghei ANKA sporozoites, 18S rRNA qRT-PCR; type: in vivo
Method: (§5) C57BL/6 mice were bred and housed in the pathogen-free facilities of the Instituto de Gulbenkian de Ciência following all the EU regulations. The mice were then moved to the Instituto de Medicina Molecular Animal House were all the experiments were performed. All protocols were approved by the IMM Animal Care Committee. […] All mice were infected with 1×10^4 P. berghei ANKA sporozoites between the ages of 7 and 9 weeks old and liver infection was determined 40 hours later. In a parallel set of experiments, sporozoite infection was allowed to proceed to blood stage, to assess the impact of genistein in disease progression.
Forty hours post-sporozoite injection, livers were dissected and homogenized, and total RNA was extracted with an RNeasy Mini kit Quiagen, according to the manufacturer's recommendation. cDNA was obtained by reverse transcription using the First-strand cDNA synthesis kit (Roche) following the manufacturer's instructions. Quantitative RT-PCR reactions were performed for quantification of parasite load, using an ABI PRISM 7000, Applied Biosystem, and specific primers for Plasmodium berghei 18 S rRNA (5′-[…]-3′ and 5′-[…]-3′); or specific primers for P. yoelii 18 S rRNA (5′ –[…]-3′ and 5′-[…]-3′) were used for quantification of parasite load in the livers of mice 40 hours after sporozoite challenge. The amplification program consisted of incubation at 50°C for 2 min, 95°C for 10 min, followed by 50 cycles at 95°C for 15 s and 60°C for 1 min. For external standardization, plasmids encoding cDNA fragments cloned into TOPO TA, Invitrogen; corresponding to the amplified regions of the corresponding genes, were utilized. Copy numbers were calculated comparing the cycle numbers of the log-linear phase of the samples with the cycle numbers of the external standards.

P. yoelii sporozoites = experiment: Mouse liver infection by P. yoelii sporozoites, 18S rRNA qRT-PCR; type: in vivo; conditions: single i.p. dose 200 mg/kg immediately prior to i.v. sporozoites; 40 hours
Method: as §5
Forty hours post-sporozoite injection, livers were dissected and homogenized, and total RNA was extracted with an RNeasy Mini kit Quiagen, according to the manufacturer's recommendation. cDNA was obtained by reverse transcription using the First-strand cDNA synthesis kit (Roche) following the manufacturer's instructions. Quantitative RT-PCR reactions were performed for quantification of parasite load, using an ABI PRISM 7000, Applied Biosystem, and specific primers for Plasmodium berghei 18 S rRNA (5′-[…]-3′ and 5′-[…]-3′); or specific primers for P. yoelii 18 S rRNA (5′ –[…]-3′ and 5′-[…]-3′) were used for quantification of parasite load in the livers of mice 40 hours after sporozoite challenge. […]

[7] = tested on: P. berghei ANKA sporozoites; experiment: Blood parasitemia, survival and experimental cerebral malaria after sporozoite infection of mice; type: in vivo; conditions: 1000 ppm genistein-supplemented diet
Method: as §5
After sporozoite inoculation, peripheral blood parasitemias were followed daily by counting parasites in Giemsa stained thin blood films. To accurately quantify parasitemia in the first 96 hours post-infection, 50 to 100 microscope fields were examined in each blood film. At later time points, when the levels of parasitemia were higher, 20 microscope fields were counted per mouse. Mice were checked daily for development of ECM symptoms, which include ataxia, paralysis, deviation of the head and convulsions, coma and death.

[8] = tested on: P. berghei ANKA-infected red blood cells (iRBC); experiment: Blood stage infection of mice with P. berghei ANKA iRBC; type: in vivo; conditions: 1000 ppm genistein-supplemented diet; 1×10^6 iRBC i.p.
Method: Peripheral blood parasitemia and ECM symptoms were determined as described above.

[9] = tested on: phospho c-met (Tyr1234/1235); experiment: Sporozoite-induced MET phosphorylation in Huh7 cells, Western blot; type: cell-based, human; conditions: four hours after sporozoites
Method: Four hours later total protein extracts were analysed with anti-phospho c-met (Tyr1234/1235) and MET antibodies.
Protein concentrations were determined using the Bio-Rad Laboratories DC protein assay kit and equal amounts of protein extracts ([…]) were separated by 8% SDS-PAGE gels, transferred onto nitrocellulose membranes and processed for Western blotting. The antibody directed to phospho-MET was used at 1∶1000 dilution (#3126; Cell signalling technology, Inc.) and β-chain of human MET was detected with the antibody MET (C-12) at 0,5 μg/mL dilution (#sc-10; Santa Cruz Biotechnology, Inc.). After incubation with the primary antibodies the enhanced chemiluminescence detection system ECL and Kodak films (Amersham Pharmacia Biotech, Piscataway, NJ) were used to visualize proteins on the nitrocellulose blots.

[10] = Genistein quantification in mouse sera, HPLC/MS; type: in vivo, C57BL/6 mice; conditions: for Genistein Concentration (μM): mouse sera, individual mice
Method: as §5, with “later.” for “later. In a parallel set of experiments, sporozoite infection was allowed to proceed to blood stage, to assess the impact of genistein in disease progression.”
“Free” analytes_aglycones, were extracted from the plasma/serum sample with ethyl acetate. The organic phase was evaporated and the dried residue was reconstituted in the mobile phase. For determination of the “total” isoflavones the glucuronide- and sulphate-conjugates were cleaved by enzymatic hydrolysis prior to ethyl acetate extraction. Chromatographic separation was performed by HPLC/MS on a C18-column in the gradient mode. Mass spectrometric detection (Agilent LC/MSD VL single-quadrupole-mass spectrometer equipped with elektrospray-ion source) was carried out with negative electrospray ionisation in the SIM-mode. Specifically, 200 μl of plasma were transferred into a 2 mL Eppendorf tube and 100 μl of enzyme solution were added. For enzymatic cleavage of the glucuronide- and sulphate-conjugates the samples were incubated at 38°C for 3 h, followed by addition of 30 μl internal standard solution. For extraction, 1200 μl ethyl acetate was added to the sample, shaken for 5 min at 300 rpm and centrifuged for 10 min at 10000 rpm and 10°C. 1000 μl of the supernatant was transferred into a 2 ml Eppendorf tube and evaporated at 30–35°C to dryness with a Vortex-Evaporator or Speed Vac. The dried residue was reconstituted in 150 μl mobile phase, briefly vortexed, and transferred into an HPLC vial. Forty to 75 μl were injected onto the analytical column and analyzed by HPLC-MS [35]. Data acquisition of extracted ion chromatograms, integration and quantification was performed with the Chemstation Software (Version 9.03 or higher) from Agilent Technologies.

[11] = adults; daily ingestion of up to 54 mg; cited from earlier work

## O=c1c(-c2ccc(O)cc2)coc2cc(O)cc(O)c12 [genistein]
[1]; Hepa1-6, 25 μM, 24 hours after infection
  EEF size (area): significantly smaller
[1]; increasing doses of genistein, 24 hours after sporozoite addition
  Hepa1-6 cell infection (total number of EEFs): significantly inhibits Hepa1-6 cell infection in a dose-dependent manner
[2]; HepG2, added at sporozoite addition and washed at various time-points
  infection, drug removed at different times after infection: reduced infection when it was present during the first 4 hours of infection
[2]; HepG2, added prior to infection or up to 6 hours after sporozoite addition
  infection, drug added at different times after sporozoite addition: significantly reduced infection to approximately the same extent
[2]; HepG2 cells, 24 hours after infection
  reduction in infection: 74±8%
[3]; Huh7 cells pre-treated 2 h with 25 μM, washed before sporozoite addition, 24 hours
  infection after pre-treatment of cells: small but significant reduction of infection
[3]; Huh7 cells, 25 μM, 24 hours after infection
  reduction in infection: 68±4%
HepG2 cells
  number of adherent cells: constant number of cells
Huh7 cells
  proportion of cell death: constant proportion of cell death
[4]
  infection level (EEF number) with pre-treated sporozoites: no significant difference
[5]; 6, 30 and 44 hours after sporozoite addition
  increase in GFP intensity of infected cells (parasite development): significantly less pronounced
[5]; 2 hours post-infection
  invasion rate (GFP positive cells): equally invaded
P. berghei ANKA; Huh-7, 24 h, read-out: IC50 (inhibition of infection), P. berghei ANKA infection of Huh7 cells
  IC50: ~20 µM
P. yoelii
  IC50: ~30 µM
P. berghei sporozoites
  infection of primary mouse hepatocytes: reduced the infection of these cells
[6]; 1000 ppm genistein-supplemented diet
  relation of degree of liver infection to genistein levels in sera: inversely correlated
[6]; 1000 ppm genistein-supplemented diet, 40 hours after sporozoite injection
  liver parasite load: significantly reduced
[6]; single i.p. dose 200 mg/kg immediately prior to i.v. sporozoites, 40 hours
  parasite load in the liver: reduced infection
[6]; single oral dose 200 mg/kg 6 hours prior to sporozoite inoculation, 40 hours after infection
  reduction of liver infection: 64%
P. yoelii sporozoites
  parasite load in the liver: reduced infection
[7]; 25 days after infection
  survival: 56%
[7]; i.v. sporozoites
  appearance of blood parasitemia: significantly reduced
  mice protected from developing cerebral malaria: Fifty-six
[8]
  development of parasitemia after iRBC infection: no significant difference
[9]
  sporozoite-induced Met phosphorylation: inhibited by genistein
[10]; genistein supplemented diet
  genistein amounts in sera: ≤ 5 µM
[10]; single oral dose 200 mg/kg, 2 h after gavage, 200 mg/kg
  Genistein Concentration (μM): 7,07 μM and 15,00 μM and 13,25 μM and 7,23 μM
[10]; single oral dose 200 mg/kg, 6 h after gavage, 200 mg/kg
  Genistein Concentration (μM): 0,57 μM and 0,32 μM and 0,45 μM and 2,29 μM
[10]; supplemented diet 1000 ppm, 7–9 weeks old mice
  Genistein Concentration (μM): 3,32 μM and 1,99 μM and 1,35 μM and 2,26 μM and 3,02 μM and 1,34 μM and 3,14 μM and 3,75 μM and 0,20 μM and 1,11 μM and 0,84 μM and 1,37 μM and 0,68 μM and 1,16 μM and 1,42 μM
[11]
  adverse effects: No obvious adverse effects

## COc1cc(NC(C)CCCN)c2ncccc2c1 (stereo not shown) [primaquine]
P. berghei ANKA; Huh-7, P. berghei ANKA infection of Huh7 cells, 24 hours, read-out: IC50 (inhibition of infection)
  IC50: 13 µM
